Measured values taken from EP0481744B1, “Piperazine derivatives” (JOHN WYETH & BROTHER LIMITED, priority 1990, dated 1992).

Assays:
5HT1A receptor [1] = target: T1, 5HT1A receptor (Rattus norvegicus, UniProt P19327); assay: 5HT1A receptor antagonism: antagonism of 8-OH DPAT syndrome in the rat; assay type: in vivo; set-up: (8-OH DPAT) syndrome in the rat; from tissue; host or cells: whole animal (rat), in vivo; conditions: antagonism of 8-hydroxy-2-(di-n-propylamino)-tetralin (8-OH DPAT) syndrome in the rat; s.c.
T1 sequence (P19327 1-422): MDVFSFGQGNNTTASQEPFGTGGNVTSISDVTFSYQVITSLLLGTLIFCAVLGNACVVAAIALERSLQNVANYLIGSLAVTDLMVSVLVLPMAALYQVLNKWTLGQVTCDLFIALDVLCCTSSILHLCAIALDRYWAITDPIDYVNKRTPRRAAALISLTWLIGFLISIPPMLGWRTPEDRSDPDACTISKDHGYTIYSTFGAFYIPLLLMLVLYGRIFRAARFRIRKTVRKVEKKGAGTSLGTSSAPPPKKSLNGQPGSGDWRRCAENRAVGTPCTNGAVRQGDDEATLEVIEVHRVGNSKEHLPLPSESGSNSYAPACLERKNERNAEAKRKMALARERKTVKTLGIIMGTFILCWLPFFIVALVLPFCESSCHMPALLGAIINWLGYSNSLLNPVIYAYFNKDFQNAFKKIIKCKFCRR
Experimental: The compounds were also tested for 5HT1A receptor antagonism activity in a test involving the antagonism of 8-hydroxy-2-(di-n-propylamino)-tetralin (8-OH DPAT) syndrome in the rat. The results are given below

[2] = test system: mouse exploratory activity; assay: Potential anxiolytic activity: mouse exploratory activity in a two-compartment light/dark box; assay type: in vivo; conditions: s.c.
Experimental: The compounds were also tested for potential anxiolytic activity by a test procedure measuring mouse exploratory activity in a two-compartment light/dark box based upon the procedure of B Costall et al, Neuropharmacology, 1987, 26, 195-200 and J.N. Crawley et al, Pharmac. Biochem. Behav. 1980, 13, 167-170. The results are given below

5HT1A receptor [3] = target: T1, 5HT1A receptor; assay: 5-HT1A receptor binding activity in rat hippocampal membrane homogenate; set-up: rat hippocampal membrane homogenate; from tissue; host or cells: rat hippocampus (membrane homogenate)
Experimental: The compounds of the invention were tested for 5-HT1A receptor binding activity in rat hippocampal membrane homogenate by the method of B S Alexander and M D Wood, J Pharm Pharmacol, 1988, 40, 888-891.

SMILES | MED (5HT1A receptor [1]) | MED [2] | IC50 (5HT1A receptor [3]) [nM]
COc1ccccc1N1CCN(CC(C(=O)N2CCCCCC2)c2ccccc2)CC1 (stereo not drawn) [Compound B, 2,3,4,5,6,7-hexahydro-1-⁅3-⁅1-[4-(2-methoxyphenyl)piperazinyl]⁆-2-phenylpropionyl⁆-1H-azepine, reference compound] | 0.3 mg/kg; s.c. | 1 mg/kg; s.c. | –
COc1ccccc1N1CCN(CCC(C(=O)N2CCCCCC2)c2ccccc2)CC1 (stereo not drawn) [Compound A, 2,3,4,5,6,7-hexahydro-1-{4-[1-[4-(2-methoxyphenyl)-piperazinyl]]-2-phenylbutyryl}-1H-azepine] | 0.03 mg/kg; s.c. | 0.03 mg/kg; s.c. | 3
COc1ccccc1N1CCN(CCC(C(=O)N2CCCCCC2)c2ccccc2)CC1 (single isomer, unassigned) [Compound C, 2,3,4,5,6,7-Hexahydro-1-⁅4-[1-[4-(2-methoxyphenyl)-piperazinyl]]-2-phenylbutyryl⁆-1H-azepine] | – | – | 1
